Experimental data from patent US20250177366A1, “COMPOSITIONS AND METHODS FOR ALLEVIATING PAIN AND REDUCING ADVERSIVENESS OF STIMULI” (UNIVERSITY OF WASHINGTON, priority 2021, published 2025).

Test system: neuronal activity marker phosphorylated-ERK (pERK)
Experiment: Whole brain activity profiling, pERK/tERK immunolabeling and MAP-mapping
Format: in vivo, Zebrafish (Danio rerio)
Experimental: To investigate how AS1 might alter central nervous system activity in the presence of nociceptive stimuli, whole brain activity profiling with the neuronal activity marker phosphorylated-ERK (pERK) was performed. Briefly, 6 dpf larval zebrafish were exposed to noxious heat (37.5° C.) or rearing temperature (28.5° C.) in the presence of vehicle or AS1 (either 2.5 or 5 μM) for 15 minutes. Immunolabeling was then performed to detect both total ERK (tERK) and phosphorylated ERK (pERK) (FIG. 8). Volumetric z-stacks of the entire brain of each fish were taken upon a confocal microscope, registered to a reference brain, and smoothed using an ImageJ script. […] Brains from each experimental condition (AS1+28.5° C., Vehicle+37.5° C., and AS1+37.5° C.) with Vehicle+28.5° C. were initially compared to determine how activity under these experimental conditions differed from the baseline state, then the total change in signal in each brain region were subtracted for AS1+28.5° C. and Vehicle+37.5° C. treated fish from AS1+37.5° C. treated fish. This was done to look for brain regions specifically activated in the presence of the noxious stimulus and AS1, reasoning that these areas would drive attraction to noxious stimuli.
pERK Immunolabeling. […]

In the case of `CC(C)c1ccc(C(=O)Nc2ccncc2)cc1` [AS1, 4-propan-2-yl-N-pyridin-4-ylbenzamide], the “share of the top 25 most active regions that are subpallial/dopaminergic populations” value (AS1 + noxious heat (37.5° C.)) is reported as 64% and the “brain regions recruited by AS1 alone” value (AS1-treated fish not exposed to noxious heat (28.5° C.)) is reported as “primarily recruited neuron clusters within the mesencephalon and rhombencephalon”.
